Measurements published in ChEMBL document CHEMBL3132769, “Fragment growing to retain or alter the selectivity of anchored kinase hinge-binding fragments” (Medchemcomm, 2014).

Columns and labels:
[1] = system: T1, Receptor-type tyrosine-protein kinase FLT3 (Homo sapiens), P36888 [D835Y]; assay: Inhibition of human FLT3 D835Y mutant catalytic domain expressed in baculovirus assessed as substrate phosphorylation using fluorescence-labelled peptides as substrate at 70 uM after 90 mins by microfluidic peptide phosphorylation assay
T1 sequence (whole entry): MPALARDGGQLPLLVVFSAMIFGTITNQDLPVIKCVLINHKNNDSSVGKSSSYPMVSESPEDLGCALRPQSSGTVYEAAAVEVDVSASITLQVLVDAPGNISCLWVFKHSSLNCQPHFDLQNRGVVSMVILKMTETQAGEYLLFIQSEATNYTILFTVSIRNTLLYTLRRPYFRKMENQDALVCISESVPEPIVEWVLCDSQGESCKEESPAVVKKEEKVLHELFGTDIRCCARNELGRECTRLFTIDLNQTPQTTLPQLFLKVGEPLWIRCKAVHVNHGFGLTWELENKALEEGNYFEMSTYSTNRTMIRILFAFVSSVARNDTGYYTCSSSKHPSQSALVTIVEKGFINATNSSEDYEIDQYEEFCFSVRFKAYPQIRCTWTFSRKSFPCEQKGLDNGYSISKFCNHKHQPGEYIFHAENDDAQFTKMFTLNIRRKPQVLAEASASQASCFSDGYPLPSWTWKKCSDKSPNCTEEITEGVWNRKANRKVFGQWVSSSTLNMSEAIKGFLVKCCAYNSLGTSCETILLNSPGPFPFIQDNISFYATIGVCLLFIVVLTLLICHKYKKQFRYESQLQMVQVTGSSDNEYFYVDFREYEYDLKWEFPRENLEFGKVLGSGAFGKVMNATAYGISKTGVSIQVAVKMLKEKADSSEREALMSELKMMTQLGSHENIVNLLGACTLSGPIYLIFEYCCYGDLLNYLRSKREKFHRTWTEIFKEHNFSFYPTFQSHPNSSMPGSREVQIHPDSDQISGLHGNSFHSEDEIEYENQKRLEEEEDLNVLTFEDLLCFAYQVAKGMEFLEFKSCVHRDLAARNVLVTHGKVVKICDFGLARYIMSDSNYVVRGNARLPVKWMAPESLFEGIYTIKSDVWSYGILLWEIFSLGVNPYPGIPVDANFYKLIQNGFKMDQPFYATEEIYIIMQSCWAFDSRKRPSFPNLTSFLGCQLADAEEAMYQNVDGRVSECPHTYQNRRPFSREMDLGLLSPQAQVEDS

[2] = biological target: Proto-oncogene tyrosine-protein kinase Src (Homo sapiens) (UniProt P12931); assay: Inhibition of human full length SRC expressed in baculovirus assessed as substrate phosphorylation using fluorescence-labelled peptides as substrate at 2 uM after 90 mins by microfluidic peptide phosphorylation assay
[3] = biological target: T2, Serine/threonine-protein kinase D1 (Homo sapiens) (UniProt Q15139); assay: Inhibition of human full length PKD1 expressed in baculovirus assessed as substrate phosphorylation using fluorescence-labelled peptides as substrate at 0.1 uM after 90 mins by microfluidic peptide phosphorylation assay
T2 sequence (whole entry): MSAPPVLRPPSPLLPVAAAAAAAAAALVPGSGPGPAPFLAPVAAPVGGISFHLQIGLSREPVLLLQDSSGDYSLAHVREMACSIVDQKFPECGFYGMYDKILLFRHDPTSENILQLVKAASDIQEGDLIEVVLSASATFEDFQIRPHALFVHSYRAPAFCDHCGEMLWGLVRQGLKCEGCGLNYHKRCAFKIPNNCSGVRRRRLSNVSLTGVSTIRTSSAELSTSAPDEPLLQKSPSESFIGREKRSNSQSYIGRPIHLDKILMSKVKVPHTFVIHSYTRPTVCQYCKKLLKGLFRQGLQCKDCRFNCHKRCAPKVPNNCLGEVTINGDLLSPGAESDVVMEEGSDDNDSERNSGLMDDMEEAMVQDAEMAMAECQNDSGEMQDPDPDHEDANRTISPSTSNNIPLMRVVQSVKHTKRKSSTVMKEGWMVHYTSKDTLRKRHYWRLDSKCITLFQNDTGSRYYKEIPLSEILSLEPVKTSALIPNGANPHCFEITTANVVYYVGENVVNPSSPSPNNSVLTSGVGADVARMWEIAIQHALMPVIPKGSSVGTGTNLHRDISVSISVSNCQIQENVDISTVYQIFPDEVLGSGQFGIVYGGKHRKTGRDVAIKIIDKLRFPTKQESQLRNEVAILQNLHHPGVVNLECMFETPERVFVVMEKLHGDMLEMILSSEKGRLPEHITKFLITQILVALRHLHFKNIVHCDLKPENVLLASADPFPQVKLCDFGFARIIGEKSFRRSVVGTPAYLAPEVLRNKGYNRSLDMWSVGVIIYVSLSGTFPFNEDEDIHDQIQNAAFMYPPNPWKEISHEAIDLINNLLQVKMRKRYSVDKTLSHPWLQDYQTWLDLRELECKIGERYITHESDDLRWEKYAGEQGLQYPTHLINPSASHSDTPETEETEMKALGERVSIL

[4] = biological target: T3, Protein kinase C zeta type (Homo sapiens) (UniProt Q05513); assay: Inhibition of human full length PKC zeta expressed in baculovirus assessed as substrate phosphorylation using fluorescence-labelled peptides as substrate at 0.1 uM after 90 mins by microfluidic peptide phosphorylation assay
T3 sequence (whole entry): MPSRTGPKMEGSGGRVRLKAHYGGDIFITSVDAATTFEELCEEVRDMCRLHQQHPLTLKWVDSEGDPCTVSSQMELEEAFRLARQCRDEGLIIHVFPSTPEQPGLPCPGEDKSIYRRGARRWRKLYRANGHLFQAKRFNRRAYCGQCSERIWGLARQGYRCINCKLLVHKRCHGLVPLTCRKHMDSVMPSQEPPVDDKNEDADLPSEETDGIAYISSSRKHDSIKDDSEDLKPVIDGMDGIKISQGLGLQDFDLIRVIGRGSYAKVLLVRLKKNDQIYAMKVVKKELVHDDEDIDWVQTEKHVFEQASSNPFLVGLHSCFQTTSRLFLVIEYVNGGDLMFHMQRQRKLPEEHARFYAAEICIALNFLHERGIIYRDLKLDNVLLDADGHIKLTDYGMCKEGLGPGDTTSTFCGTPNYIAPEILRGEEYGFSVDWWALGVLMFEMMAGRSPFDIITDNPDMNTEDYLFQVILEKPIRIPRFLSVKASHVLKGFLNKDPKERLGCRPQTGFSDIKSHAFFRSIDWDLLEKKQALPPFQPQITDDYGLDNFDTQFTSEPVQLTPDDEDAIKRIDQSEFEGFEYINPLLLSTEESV

Chain of Proto-oncogene tyrosine-protein kinase Src (Homo sapiens) (P12931 2-536 limits assumed): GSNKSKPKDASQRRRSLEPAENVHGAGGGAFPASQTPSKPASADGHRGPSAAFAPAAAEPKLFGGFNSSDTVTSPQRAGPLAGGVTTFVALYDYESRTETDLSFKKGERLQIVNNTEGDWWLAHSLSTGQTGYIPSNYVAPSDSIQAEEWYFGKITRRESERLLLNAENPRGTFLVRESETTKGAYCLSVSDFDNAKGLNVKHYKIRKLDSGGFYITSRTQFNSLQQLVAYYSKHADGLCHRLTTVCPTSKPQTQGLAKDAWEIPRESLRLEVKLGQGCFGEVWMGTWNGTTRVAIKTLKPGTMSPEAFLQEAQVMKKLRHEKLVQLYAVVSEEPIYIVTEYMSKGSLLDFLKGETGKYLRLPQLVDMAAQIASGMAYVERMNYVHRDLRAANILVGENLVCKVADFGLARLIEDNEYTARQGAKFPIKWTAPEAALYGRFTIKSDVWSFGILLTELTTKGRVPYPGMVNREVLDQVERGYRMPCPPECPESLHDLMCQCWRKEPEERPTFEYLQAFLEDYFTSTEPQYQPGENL

Compound: CNCc1ccc(-c2ncnc3[nH]cnc23)cc1
- inhibition [1]: 69%

Compound: NC1CCN(c2ncnc3[nH]ccc23)CC1
- inhibition [2]: 0%

Compound: C[C@H](CN(C)C)Oc1nc(Nc2cc3cccc(Cl)c3cn2)cnc1C#N
- inhibition [3]: 5%
- inhibition [4]: 19%
